Reference: US20050154230A1, “Urea derivatives” (Bayer HealthCare AG, priority 2001, published 2005)
Where two headings read alike, the source gives them in different places.

Tests used:
human VR1 = biological target: T1, human VR1 (Homo sapiens, UniProt Q8NER1); assay: Capsaicin-induced Ca2+ influx in the human VR1-transfected CHO cell line (Assay 1); type: cell-based
T1 construct: expressed in transfected cells
Procedure: [Measurement of Capsaicin-Induced Ca^2+ Influx in the Human VR1-Transfected CHO Cell Line] (Assay 1)
(1) Establishment of the Human VR1-CHOluc9aeq Cell Line
The cloned hVR1 cDNA was constructed with pcDNA3 vector and transfected into a CHOluc9aeq cell line. The cell line contains aequorin and CRE-luciferase reporter genes as read-out signals. The transfectants were cloned by limiting dilution in selection medium (DMEM/F12 medium (Gibco BRL) supplemented with 10% FCS, 1.4 mM Sodium pyruvate, 20 mM HEPES, 0.15% Sodium bicarbonate, 100 U/ml penicillin, 100 μg/ml streptomycin, 2 mM glutamine, non-essential amino acids and 2 mg/ml G418). Ca^2+ influx was examined in the capsaicin-stimulated clones. […] The human VR1-CHOluc9aeq cells were maintained in the selection medium and passaged every 3-4 days at 1-2.5×10^5 cells/flask ([…]).
(2) Measurement of Ca^2+ Influx Using FDSS-3000
Human VR1-CHOluc9aeq cells were suspended in a culture medium which is the same as the selection medium except for G418 and seeded at a density of 1,000 cells per well into 384-well plates (black walled clear-base/Nalge Nunc International). […] After washing twice with assay buffer the cells were incubated with a test compound or vehicle for 20 min at 25° C. […] Integral R was calculated and compared with controls.

[1] = human VR1-CHOluc9aeq cells, 10 nM capsaicin, compound purity about 40 to 90%, read-out: hVR1 class

T1 sequence (Q8NER1 whole entry): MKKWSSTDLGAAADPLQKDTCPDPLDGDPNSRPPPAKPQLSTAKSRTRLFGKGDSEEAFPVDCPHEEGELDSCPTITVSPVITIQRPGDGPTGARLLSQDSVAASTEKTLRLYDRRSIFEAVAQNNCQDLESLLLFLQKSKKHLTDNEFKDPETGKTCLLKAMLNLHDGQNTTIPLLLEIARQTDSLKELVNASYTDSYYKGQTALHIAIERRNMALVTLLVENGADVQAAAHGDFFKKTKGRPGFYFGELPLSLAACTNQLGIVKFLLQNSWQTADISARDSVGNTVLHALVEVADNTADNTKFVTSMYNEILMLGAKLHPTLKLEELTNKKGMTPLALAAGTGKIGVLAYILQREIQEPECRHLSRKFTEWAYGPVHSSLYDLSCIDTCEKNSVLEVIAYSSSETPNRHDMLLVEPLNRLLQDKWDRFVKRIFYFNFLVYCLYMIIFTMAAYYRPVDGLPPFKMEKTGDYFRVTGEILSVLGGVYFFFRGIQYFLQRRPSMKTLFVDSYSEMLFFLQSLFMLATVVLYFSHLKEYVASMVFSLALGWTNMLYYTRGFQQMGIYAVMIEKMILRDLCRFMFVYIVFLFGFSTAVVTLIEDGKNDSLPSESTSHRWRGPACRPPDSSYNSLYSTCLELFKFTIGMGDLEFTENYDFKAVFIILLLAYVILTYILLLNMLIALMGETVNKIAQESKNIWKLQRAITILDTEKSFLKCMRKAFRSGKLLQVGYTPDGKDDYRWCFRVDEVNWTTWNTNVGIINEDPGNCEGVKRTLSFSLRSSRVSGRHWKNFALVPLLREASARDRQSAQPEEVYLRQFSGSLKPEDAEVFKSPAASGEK

melting point | IC50 (human VR1; [1]) | IC50 (human VR1; human VR1-CHOluc9aeq cells, 10 nM capsaicin, compound purity about 40 to 90%, read-out: Activity grade) | Structure (SMILES) | IC50 (human VR1)
194 °C | 100 to 500 nM | – | O=C(Nc1ccc(-c2ccccc2)cc1)Nc1ccccc1CCO [Example 201] | –
169 °C | 500 to 1000 nM | – | COc1cccc(NC(=O)Nc2ccccc2CCO)c1 [Example 135] | –
181 to 182 °C | < 100 nM | – | O=C(Nc1cccc(-c2ccc(OCc3ccccc3)c(F)c2)c1)Nc1ccccc1CCO [Example 236] | –
213 to 215 °C | 500 to 1000 nM | – | N#Cc1ccc(-c2ccc(NC(=O)Nc3ccccc3CCO)cc2)cc1 [Example 161] | –
130 °C | 100 to 500 nM | – | COc1ccccc1-c1cccc(NC(=O)Nc2ccccc2CCO)c1 [Example 205] | –
175 to 177 °C | < 100 nM | – | O=C(Nc1ccc(Cl)c(C(F)(F)F)c1)Nc1ccccc1CCO [Example 98] | –
197 to 198 °C | < 100 nM | – | O=C(Nc1cccc(-c2ccc([N+](=O)[O-])cc2)c1)Nc1ccccc1CCO [Example 229] | –
185 °C | 100 to 500 nM | – | O=C(Nc1ccc(Cl)c(-c2ccccc2)c1)Nc1ccccc1CCO [Example 202] | –
171 to 172 °C | < 100 nM | – | O=C(Nc1cccc(-c2ccccc2F)c1)Nc1ccccc1CCO [Example 210] | –
207 °C | 500 to 1000 nM | – | Cc1ccc2cc(NC(=O)Nc3ccccc3CCO)ccc2n1 [Example 165] | –
209 to 211 °C | 500 to 1000 nM | – | O=C(Nc1cccc(-c2ccc(Cl)cc2)c1)Nc1ccc(Cl)cc1CCO [Example 246] | –
209 °C | < 100 nM | – | O=C(Nc1ccc(Cl)c(C(F)(F)F)c1)Nc1cccc(Br)c1CCO [Example 255] | –
195 to 196 °C | 500 to 1000 nM | – | Cc1ccc(NC(=O)Nc2ccccc2CCO)cc1Cl [Example 148] | –
149 to 150 °C | 500 to 1000 nM | – | O=C(NCc1ccccc1)Nc1ccccc1CCO [Example 153] | –
150 to 152 °C | 500 to 1000 nM | – | O=C(Nc1cc(C(F)(F)F)ccc1F)Nc1ccccc1CCO [Example 189] | –
161 to 164 °C | < 100 nM | – | O=C(Nc1ccc(Br)c(C(F)(F)F)c1)Nc1ccccc1CCO [Example 185] | –
186 to 187 °C | 100 to 500 nM | – | N#Cc1ccc(NC(=O)Nc2ccccc2CCO)cc1Cl [Example 191] | –
211 to 212 °C | 500 to 1000 nM | – | COc1cc(CNC(=O)Nc2ccc(F)cc2)ccc1O [Example 56] | –
159 °C | < 100 nM | – | O=C(Nc1ccc(-c2ccccc2)s1)Nc1ccccc1CCO [Example 243] | –
190 °C | < 100 nM | – | O=C(Nc1cccc(-c2ccoc2)c1)Nc1ccccc1CCO [Example 247] | –
195 °C | < 100 nM | – | O=C(Nc1cccc(-c2cccs2)c1)Nc1ccccc1CCO [Example 203] | –
181 to 183 °C | 500 to 1000 nM | – | Cc1ccc(CNC(=O)Nc2ccccc2CCO)cc1 [Example 125] | –

melting point | IC50 (human VR1; [1]) | IC50 (human VR1; human VR1-CHOluc9aeq cells, 10 nM capsaicin, compound purity about 40 to 90%, read-out: Activity grade) | Structure (SMILES) | IC50 (human VR1)
185 to 187 °C | 100 to 500 nM | – | O=C(Nc1cccc(-c2ccccc2Cl)c1)Nc1cc(C(F)(F)F)ccc1CCO [Example 233] | –
169 °C | < 100 nM | – | O=C(Nc1cccc(-c2ccc(F)cc2F)c1)Nc1ccccc1CCO [Example 199] | –
157 to 158 °C | 500 to 1000 nM | – | COc1ccc(OC)c(NC(=O)Nc2ccccc2CCO)c1 [Example 151] | –
178 to 180 °C | 100 to 500 nM | – | O=C(Nc1ccc(C(F)(F)F)cc1)Nc1ccccc1CCO [Example 108] | –
188 to 189 °C | 100 to 500 nM | – | O=C(Nc1cc(F)cc(F)c1)Nc1ccccc1CCO [Example 180] | –
211 °C | 500 to 1000 nM | – | COc1cc(CNC(=O)Nc2c(C)cccc2C)ccc1O [Example 60] | –
180 to 182 °C | < 100 nM | – | N#Cc1ccc(-c2cccc(NC(=O)Nc3ccccc3CCO)c2)cc1 [Example 230] | –
180 °C | < 100 nM | – | O=C(Nc1cccc(-c2cccc(C(F)(F)F)c2)c1)Nc1ccccc1CCO [Example 238] | –
133 to 135 °C | < 100 nM | – | O=C(Nc1ccc(Oc2ccccc2)cc1)Nc1ccccc1CCO [Example 99] | –
226 °C | 500 to 1000 nM | – | Cc1cccc(C)c1NC(=O)Nc1ccccc1CCO [Example 116] | –
203 °C | 100 to 500 nM | – | COc1cc(CNC(=O)Nc2ccc(Br)cc2)ccc1O [Example 63] | –
197 °C | 100 to 500 nM | – | O=C(Nc1ccc(-c2ccc(F)cc2)cc1)Nc1ccccc1CCO [Example 192] | –
112 to 114 °C | 500 to 1000 nM | – | O=C(Nc1ccccc1CCO)Nc1ccccc1[N+](=O)[O-] [Example 147] | –
173 to 175 °C | 500 to 1000 nM | – | O=C(Nc1ccccc1Cl)Nc1ccccc1CCO [Example 104] | –
112 to 114 °C (dec.) | 500 to 1000 nM | – | CCOc1ccccc1NC(=O)Nc1ccccc1CCO [Example 146] | –
161 to 162 °C | < 100 nM | – | COc1cc(NC(=O)Nc2ccccc2CCO)cc(C(F)(F)F)c1 [Example 188] | –
166 °C | 500 to 1000 nM | – | O=C(Nc1cccc(F)c1)Nc1ccccc1CCO [Example 132] | –
178 to 180 °C | 100 to 500 nM | – | COc1ccc(-c2ccccc2)cc1NC(=O)Nc1ccccc1CCO [Example 173] | –
194 °C | 500 to 1000 nM | – | O=C(Nc1cc(Cl)nc(Cl)c1)Nc1ccccc1CCO [Example 154] | –
133 °C | < 100 nM | – | CCOC(=O)c1cccc(-c2cccc(NC(=O)Nc3ccccc3CCO)c2)c1 [Example 226] | –
153.4 °C | – | < 100 nM | COc1cc(CNC(=O)Nc2cccc(-c3ccc(Cl)cc3)c2)ccc1O [Example 2-1, N-(4′-chloro-1,1′-biphenyl-3-yl)-N′-(4-hydroxy-3 methoxybenzyl)urea] | –
152 to 153 °C | 100 to 500 nM | – | CCOC(=O)c1cccc(NC(=O)Nc2ccccc2CCO)c1 [Example 100] | –

melting point | IC50 (human VR1; [1]) | IC50 (human VR1; human VR1-CHOluc9aeq cells, 10 nM capsaicin, compound purity about 40 to 90%, read-out: Activity grade) | Structure (SMILES) | IC50 (human VR1)
186 °C | 500 to 1000 nM | – | COc1ccc(NC(=O)Nc2ccccc2CCO)cc1 [Example 136] | –
234 to 236 °C | 500 to 1000 nM | – | O=C(Nc1ccc2[nH]ncc2c1)Nc1ccccc1CCO [Example 221] | –
178 °C | 100 to 500 nM | – | O=C(Nc1ccc(-c2ccccc2)c(Cl)c1)Nc1ccccc1CCO [Example 244] | –
150 to 151 °C | 500 to 1000 nM | – | O=C(Nc1ccc(Nc2ccccc2)cc1)Nc1ccccc1CCO [Example 159] | –
162 to 164 °C | 500 to 1000 nM | – | O=C(Nc1ccc(F)c(F)c1)Nc1ccccc1CCO [Example 179] | –
> 250 °C | < 100 nM | – | O=C(Nc1ccc2c(c1)Cc1ccccc1-2)Nc1ccccc1CCO [Example 169] | –
141 to 143 °C | 500 to 1000 nM | – | O=C(NCc1ccccc1F)Nc1ccccc1CCO [Example 119] | –
169 °C | < 100 nM | – | O=C(Nc1cccc(-c2cc(F)cc(F)c2)c1)Nc1ccccc1CCO [Example 208] | –
176 to 177 °C | 500 to 1000 nM | – | CSc1ccc(NC(=O)Nc2ccccc2CCO)cc1 [Example 156] | –
207 °C | < 100 nM | – | COc1cc(CNC(=O)Nc2ccc(Cl)c(Cl)c2)ccc1O [Example 71] | –
165 to 167 °C | 500 to 1000 nM | – | O=C(NCc1ccc(F)cc1)Nc1ccccc1CCO [Example 121] | –
170 °C | 100 to 500 nM | – | O=C(Nc1ccc(Cl)c([N+](=O)[O-])c1)Nc1ccccc1CCO [Example 113] | –
159 to 161 °C | 500 to 1000 nM | – | O=C(Nc1ccccc1CCO)Nc1cccc(F)c1F [Example 182] | –
184 to 186 °C | 500 to 1000 nM | – | Cc1ccc(NC(=O)Nc2ccccc2CCO)cc1F [Example 181] | –
173 to 175 °C | 100 to 500 nM | – | O=C(Nc1cccc(C(F)(F)F)c1)Nc1ccccc1CCO [Example 107] | –
187 to 188 °C | 500 to 1000 nM | – | CN(C)c1ccc(NC(=O)Nc2ccccc2CCO)cc1 [Example 122] | –
188 to 191 °C (dec.) | 500 to 1000 nM | – | O=C(Nc1ccccc1CCO)Nc1cccc2ccccc12 [Example 149] | –
142 °C | < 100 nM | – | O=C(Nc1cccc(-c2cc(Cl)ccc2Cl)c1)Nc1ccccc1CCO [Example 209] | –
186 to 187 °C | 500 to 1000 nM | – | COc1ccc(NC(=O)Nc2ccccc2CCO)cc1OC [Example 219] | –
193 to 194 °C | 100 to 500 nM | – | O=C(Nc1ccc(F)c(Cl)c1)Nc1ccccc1CCO [Example 190] | –

Structure (SMILES) | melting point | IC50 (human VR1; [1]) | IC50 (human VR1; human VR1-CHOluc9aeq cells, 10 nM capsaicin, compound purity about 40 to 90%, read-out: Activity grade) | IC50 (human VR1)
COc1cc(CNC(=O)Nc2ccc(C(C)C)cc2)ccc1O [Example 1-1, N-(4-hydroxy-3-methoxybenzyl)-N′-(4-isopropylphenyl)urea] | 156 °C | – | – | < 100 nM
